Data as given in US5756472A, “Antifungal agent obtained from hormonema” (Merck & Co., Inc., priority 1997, dated 1998).
Converted amounts (≈) assume the structure as drawn.

Experiments:
[1] = test system: Candida guillermondii (MY1019); assay: broth microdilution assay (MIC/MFC); assay type: cell-based; conditions: 24 hours, 35°-37° C.
Experimental: (§1) In the microbroth dilution assay, microorganisms were selected by streaking a yeast culture on Sabouraud dextrose agar (SDA) and incubating for 24-48 hours at 35°-37° C. Three to five characteristic colonies were selected and transferred to a fresh plate and incubated under similar conditions. From the regrowth, 3 to 5 colonies were selected and suspended in 10 milliliters of YM broth (Difco) and incubated for 4 hours at 35°-37° C. shaking at 225 rpm. The 4 hour broth cultures were adjusted optically to 86% transmission resulting in a concentration of 1-5×10^6 cfu/ml which was further diluted 1:100 in YNBD (yeast nitrogen base with 1% dextrose) to obtain a concentration of 1-5×10^4 cfu/ml for use as inocula.
(§2) The test compound was dissolved at […] in 10% DMSO and diluted 2× into the first well to achieve a concentration of 256 μg/ml at 5% DMSO in the first well. Compounds are subsequently serially diluted 2× and cell suspension is added to each well resulting in an additional 2× dilution of compound. 75 μl of said solution is delivered to each well in column 1 of a 96-well, U-bottomed plate. The compounds in column 1 were then serially diluted two-fold to yield concentrations from 128 μg/ml to 0.03 μg/ml.
(§3) The plates containing the diluted compounds were then inoculated with 75 μl/well of the appropriate microorganism and incubated for 48 hours at 35°-37° C. with MIC (minimum inhibitory concentration) determinations carried out after 24 hours of incubation (except Cryptococcus strains which are read at 48 hours). Growth and sterility controls for each organism and sterility checks for the compounds also were carried out.
(§4) After recording MICs at 24 hours, the microtiter plates were shaken gently to resuspend the cells. A 1.5 μl sample was transferred from each well of the 96-well plate to a single reservoir inoculum plate containing SDA. The inoculated SDA and corresponding microtiter plates were incubated for 24 hours at 35°-37° C. For Cryptococcus neoformans, SDA plates were inoculated at 48 hours after recording MICs and incubated 48 hours before reading the MFC. MFC is the lowest concentration of compound at which either no growth or growth of <4 colonies occur.

[2] = test system: Candida parapsilosis (MY1010); assay: broth microdilution assay (MIC/MFC); assay type: cell-based; conditions: Lodderomyces parapsilosis, 24 hours, 35°-37° C.
Experimental: as §1, §2, §3, §4

[3] = test system: Cryptococcus neoformans (MY2061); assay: broth microdilution assay (MIC/MFC); assay type: cell-based
Experimental: as §1, §2, §3, §4

Candida krusei = assay: broth microdilution assay (MIC/MFC); assay type: cell-based; conditions: Pichia kudriavzevii, 24 hours, 35°-37° C.
Experimental: as §1, §2, §3, §4

[4] = test system: Candida tropicalis (MY1124); assay: broth microdilution assay (MIC/MFC); assay type: cell-based; conditions: 24 hours, 35°-37° C.
Experimental: as §1, §2, §3, §4

Candida albicans (CA2) = assay: broth microdilution assay (MIC/MFC); assay type: cell-based; conditions: 24 hours, 35°-37° C.
Experimental: as §1, §2, §3, §4

[5] = test system: Candida pseudotropicalis (MY2099); assay: broth microdilution assay (MIC/MFC); assay type: cell-based; conditions: Kluyveromyces marxianus, 24 hours, 35°-37° C.
Experimental: as §1, §2, §3, §4

[6] = test system: Cryptococcus neoformans (MY2062); assay: broth microdilution assay (MIC/MFC); assay type: cell-based
Experimental: as §1, §2, §3, §4

[7] = test system: Saccharomyces cerevisiae (MY2140); assay: broth microdilution assay (MIC/MFC); assay type: cell-based; conditions: 24 hours, 35°-37° C.
Experimental: as §1, §2, §3, §4

[8] = test system: Candida albicans (MY1055); assay: broth microdilution assay (MIC/MFC); assay type: cell-based; conditions: 24 hours, 35°-37° C.
Experimental: as §1, §2, §3, §4

[9] = test system: Candida glabrata (MY1381); assay: broth microdilution assay (MIC/MFC); assay type: cell-based; conditions: Nakaseomyces glabratus, 24 hours, 35°-37° C.
Experimental: as §1, §2, §3, §4

[10] = test system: Candida albicans (CLY539); assay: broth microdilution assay (MIC/MFC); assay type: cell-based; conditions: 24 hours, 35°-37° C.
Experimental: as §1, §2, §3, §4

[11] = test system: Candida tropicalis (MY1012); assay: broth microdilution assay (MIC/MFC); assay type: cell-based; conditions: 24 hours, 35°-37° C.
Experimental: as §1, §2, §3, §4

[12] = test system: Aspergillus flavus, Fusarium oxysporum, Ustilago zeae and the like; assay: agar plate inhibition zone test against filamentous fungi; assay type: cell-based; conditions: agar plates, methanol solutions, 28° C. or 37° C., 24 hours
Experimental: The compound is also useful for inhibiting the growth of filamentous fungi. Such use may be illustrated in the following tests with Aspergillus flavus, Fusarium oxysporum, Ustilago zeae and the like. Inocula for filamentous fungi are prepared by scraping the surface of stock plates maintained on potato dextrose agar with a moistened sterile dacron swab. The spores and mycelia are then suspended in 10 milliliters of sterile potato dextrose broth and adjusted to 70 percent transmission at 660 nm. The samples to be tested for production of antifungal agent are applied directly to the agar plates as methanol solutions. When the sample to be tested is crude broth, it may be centrifuged prior to application. The assay plates are then incubated at either 28° C. or 37° C. for 24 hours. Following incubation, the inhibition zones are measured. Effects on growth are also noted as to appearance.

[13] = test system: Aspergillus fumigatus (MY5668); assay: broth microdilution assay (MIC/MEC); assay type: cell-based; conditions: 24 hours
Experimental: as §1, §2, §3
(§5) No MFC values are indicated for Aspergillus fumigatus since colony counts are unreliable with filamentous species. Instead, a Minimum Effective Concentration (MEC) is reported. The MEC is defined as the lowest concentration of drug which effects a severe morphological change in the cells. The MEC is scored macroscopically by direct observation of the plate wells after 24 hours and reflects microscopic alterations in cell morphology (Kurtz et al, AAC 1994 38:1480-1489).

[14] = test system: Aspergillus fumigatus (MY4839); assay: broth microdilution assay (MIC/MEC); assay type: cell-based; conditions: 24 hours
Experimental: as §1, §2, §3, §5

[15] = interconversion of the two diastereomers; assay type: physicochemical; conditions: normal temperatures
panel of fungi = assay: broth microdilution assay, comparison with amphotericin B; assay type: cell-based; conditions: MIC and MFC
Experimental: as §1, with “inocula. […]” for “inocula.”
as §3, with “Growth and sterility controls for each organism and sterility checks for the compounds also were carried out.” left out
After recording MICs at 24 hours, the microtiter plates were shaken gently to resuspend the cells. […] For Cryptococcus neoformans, SDA plates were inoculated at 48 hours after recording MICs and incubated 48 hours before reading the MFC. […]

[16] = read-out: MIC (minimum inhibitory concentration)
[17] = SDA, no growth or <4 colonies, read-out: MFC (minimum fungicidal concentration)
[18] = SDA inoculated at 48 hours, incubated 48 hours, no growth or <4 colonies, read-out: MFC (minimum fungicidal concentration)
[19] = read at 48 hours, 35°-37° C., read-out: MIC (minimum inhibitory concentration)
[20] = 35°-37° C., read-out: MIC (minimum inhibitory concentration)
[21] = lowest concentration effecting severe morphological change, read-out: MEC (Minimum Effective Concentration)

CC(=O)OC1CC23C4=CCC5(C)C(C(=O)O)C(C)(C(C)C(C)C)CCC5(C)C4CCC2C(C)(COC3O)C1OC1OC(CO)C(O)C(O)C1O (stereo not drawn) [Compound I]
MIC [1, 16]: 1 µg/mL (≈ 1.41 µM) | MFC [1, 17]: 2 µg/mL (≈ 2.82 µM) | MIC [2, 16]: 0.25 µg/mL (≈ 0.353 µM) | MFC [2, 17]: 0.25 µg/mL (≈ 0.353 µM) | MFC [3, 18]: 32 µg/mL (≈ 45.1 µM) | MIC [3, 19]: 32 µg/mL (≈ 45.1 µM) | MIC (Candida krusei; [16]): 4 µg/mL (≈ 5.64 µM) | MFC (Candida krusei; [17]): 1 µg/mL (≈ 1.41 µM) | MIC [4, 16]: 16 µg/mL (≈ 22.6 µM) | MFC [4, 17]: 16 µg/mL (≈ 22.6 µM) | MIC (Candida albicans (CA2); [16]): > 128 µg/mL | MFC (Candida albicans (CA2); [17]): > 128 µg/mL | MIC [5, 16]: 0.5 µg/mL (≈ 0.705 µM) | MFC [5, 17]: 1 µg/mL (≈ 1.41 µM) | MFC [6, 18]: 128 µg/mL (≈ 181 µM) | MIC [6, 19]: 32 µg/mL (≈ 45.1 µM) | MIC [7, 16]: 2 µg/mL (≈ 2.82 µM) | MFC [7, 17]: 2 µg/mL (≈ 2.82 µM) | MIC [8, 16]: 0.5 µg/mL (≈ 0.705 µM) | MFC [8, 17]: 0.25 µg/mL (≈ 0.353 µM) | MIC [9, 16]: 1 µg/mL (≈ 1.41 µM) | MFC [9, 17]: 0.5 µg/mL (≈ 0.705 µM) | MIC [10, 16]: 0.5 µg/mL (≈ 0.705 µM) | MFC [10, 17]: 0.5 µg/mL (≈ 0.705 µM) | MIC [11, 16]: 1 µg/mL (≈ 1.41 µM) | MFC [11, 17]: 1 µg/mL (≈ 1.41 µM) | inhibition of growth of filamentous fungi [12]: effectively inhibit growth of the fungal organisms | MIC [13, 20]: 32 µg/mL (≈ 45.1 µM) | minimal effective concentration [13, 21]: 0.031 µg/mL | MIC [14, 20]: 64 µg/mL (≈ 90.3 µM) | minimal effective concentration [14, 21]: 0.031 µg/mL | reequilibration of separated diastereomers [15]: reequilibrate at normal temperatures | effectiveness against a panel of fungi, compared with amphotericin B (panel of fungi): at concentrations comparable to an established antifungal agent, amphotericin B
